Assay results reported in ChEMBL document CHEMBL4814028, “Design, synthesis, and antibacterial evaluation of PFK-158 derivatives as potent agents against drug-resistant bacteria” (Bioorg Med Chem Lett, 2021).
≈ marks a conversion by molar mass, not a printed value.

Key:
Assay type in all cases: functional
Escherichia coli [1] = test: Antibacterial activity against ESBLs negative Escherichia coli ATCC 25922 by agar method
Escherichia coli [2] = test: Antibacterial activity against NDM-1 positive Escherichia coli ATCC 2469 by agar method
Staphylococcus aureus [3] = test: Antibacterial activity against methicillin-sensitive Staphylococcus aureus ATCC 29213 by agar method
[4] = tested on: Staphylococcus epidermidis; test: Antibacterial activity against methicillin-resistant Staphylococcus epidermidis 16-5 by agar method
Staphylococcus aureus [5] = test: Antibacterial activity against methicillin-resistant Staphylococcus aureus ATCC 33591 by agar method
Acinetobacter baumannii = test: Antibacterial activity against carbapenem-resistant Acinetobacter baumannii 16-33 by agar method
[6] = tested on: Staphylococcus epidermidis; test: Antibacterial activity against methicillin-sensitive Staphylococcus epidermidis ATCC 12228 by agar method
Escherichia coli [7] = test: Antibacterial activity against ESBLs positive Escherichia coli ATCC 35218 by agar method
Enterococcus faecalis [8] = test: Antibacterial activity against Vancomycin-sensitive Enterococcus faecalis ATCC 29212 by agar method
Enterococcus faecalis [9] = test: Antibacterial activity against vancomycin-resistant Enterococcus faecalis ATCC 51299 by agar method

Row | Compound | MIC (Escherichia coli [1]) [µg/mL] | MIC (Escherichia coli [2]) [µg/mL] | MIC (Staphylococcus aureus [3]) [µg/mL] | MIC [4] [µg/mL] | MIC (Staphylococcus aureus [5]) [µg/mL] | MIC (Acinetobacter baumannii) [µg/mL] | MIC [6] [µg/mL] | MIC (Escherichia coli [7]) [µg/mL] | MIC (Enterococcus faecalis [8]) [µg/mL] | MIC (Enterococcus faecalis [9]) [µg/mL]
1 | C[n+]1cccc(/C=C/C(=O)c2ccc3ccccc3c2)c1.[I-] | > 128 | > 128 | 128 | > 128 | 128 | > 128 | 64 | > 128 | > 128 | > 128
2 | O=C(/C=C/c1ccncc1)c1ccc2ccc(C(F)(F)F)cc2n1 | > 32 | > 32 | > 32 | > 32 | 16 (≈ 48.7 µM) | > 32 | > 32 | > 32 | > 32 | > 32
3 | O=C(/C=C/c1ccc2ccccc2n1)c1ccc(O)c(O)c1 | > 64 | > 64 | 32 (≈ 110 µM) | 32 (≈ 110 µM) | 32 (≈ 110 µM) | > 64 | 16 (≈ 54.9 µM) | > 64 | > 64 | > 64
4 | O=C(/C=C/c1ccc2ncccc2c1)c1cccnc1 | > 128 | > 128 | 16 (≈ 61.5 µM) | 8 (≈ 30.7 µM) | 16 (≈ 61.5 µM) | 128 (≈ 492 µM) | 8 (≈ 30.7 µM) | > 128 | 32 (≈ 123 µM) | 32 (≈ 123 µM)
5 | O=C(/C=C/c1cccnc1)c1ccc2ccc(C(F)(F)F)cc2n1 | > 32 | > 32 | > 32 | > 32 | 32 (≈ 97.5 µM) | > 32 | > 32 | > 32 | > 32 | > 32
6 | C[n+]1cccc(C(=O)/C=C/c2ccc3ccccc3c2)c1.[I-] | > 128 | > 128 | > 128 | > 128 | > 128 | > 128 | > 128 | > 128 | > 128 | > 128
7 | O=C(/C=C/c1cnc2ccccc2c1)c1ccncc1 | > 128 | > 128 | 8 (≈ 30.7 µM) | 8 (≈ 30.7 µM) | 8 (≈ 30.7 µM) | 128 (≈ 492 µM) | 8 (≈ 30.7 µM) | > 128 | 32 (≈ 123 µM) | 16 (≈ 61.5 µM)
8 | O=C(/C=C/c1ccc2ccccc2n1)c1ccncc1 | > 32 | > 32 | 32 (≈ 123 µM) | 32 (≈ 123 µM) | 32 (≈ 123 µM) | > 32 | 32 (≈ 123 µM) | > 32 | 32 (≈ 123 µM) | 32 (≈ 123 µM)
9 | COCOc1ccc(C(=O)/C=C/c2ccc3ccccc3n2)cc1OCOC | > 128 | > 128 | 8 (≈ 21.1 µM) | 8 (≈ 21.1 µM) | 8 (≈ 21.1 µM) | > 128 | 4 (≈ 10.5 µM) | > 128 | > 128 | > 128
10 | O=C(/C=C/c1ccncc1)c1ccc2ccccc2c1 | > 128 | > 128 | 8 (≈ 30.9 µM) | 8 (≈ 30.9 µM) | 4 (≈ 15.4 µM) | > 128 | 4 (≈ 15.4 µM) | > 128 | > 128 | > 128
11 | O=C(/C=C/c1ccc2ccccc2c1)c1cccnc1 | > 128 | > 128 | > 128 | > 128 | > 128 | > 128 | > 128 | > 128 | > 128 | > 128
12 | O=C(/C=C/c1ccc2ccc(C(F)(F)F)cc2n1)c1ccccc1 | > 128 | > 128 | > 128 | > 128 | > 128 | > 128 | > 128 | > 128 | > 128 | > 128
13 | O=C(/C=C/c1ccc2ccccc2c1)c1ccncc1 | > 128 | > 128 | > 128 | > 128 | > 128 | > 128 | > 128 | > 128 | > 128 | > 128
14 | O=C(/C=C/c1ccc2ccccc2c1)c1ccccn1 | > 128 | > 128 | > 128 | > 128 | > 128 | > 128 | > 128 | > 128 | > 128 | > 128
15 | O=C(/C=C/c1cccnc1)c1ccc2ccccc2c1 | > 128 | > 128 | 8 (≈ 30.9 µM) | 16 (≈ 61.7 µM) | 8 (≈ 30.9 µM) | > 128 | 4 (≈ 15.4 µM) | > 128 | > 128 | > 128
16 | C[n+]1ccc(C(=O)/C=C/c2ccc3ccccc3c2)cc1.[I-] | > 128 | > 128 | 128 | 128 | 64 | > 128 | 128 | > 128 | > 128 | > 128
17 | O=C(/C=C/c1cnc2ccccc2c1)c1cccnc1 | > 128 | > 128 | 16 (≈ 61.5 µM) | 32 (≈ 123 µM) | 32 (≈ 123 µM) | 128 (≈ 492 µM) | 16 (≈ 61.5 µM) | > 128 | 32 (≈ 123 µM) | 32 (≈ 123 µM)
18 | O=C(/C=C/c1ccc2ccc(C(F)(F)F)cc2n1)c1ccc(O)c(O)c1 | > 128 | > 128 | 32 (≈ 89.1 µM) | 16 (≈ 44.5 µM) | 32 (≈ 89.1 µM) | > 128 | 16 (≈ 44.5 µM) | > 128 | > 128 | > 128
19 | COCOc1ccc(C(=O)/C=C/c2ccc3ccc(C(F)(F)F)cc3n2)cc1OCOC | > 64 | > 64 | > 64 | > 64 | > 64 | > 64 | > 64 | > 64 | > 64 | > 64
20 | O=C(/C=C/c1ccc2ncccc2c1)c1ccncc1 | > 128 | > 128 | 8 (≈ 30.7 µM) | 16 (≈ 61.5 µM) | 8 (≈ 30.7 µM) | 128 (≈ 492 µM) | 16 (≈ 61.5 µM) | > 128 | 32 (≈ 123 µM) | 32 (≈ 123 µM)
21 | C[n+]1cccc(C(=O)/C=C/c2ccc3ccc(C(F)(F)F)cc3n2)c1.[I-] | > 128 | > 128 | 64 | 64 | 32 | > 128 | 64 | > 128 | 128 | 128
22 | C[C@H]1COc2c(N3CCN(C)CC3)c(F)cc3c(=O)c(C(=O)O)cn1c23.C[C@H]1COc2c(N3CCN(C)CC3)c(F)cc3c(=O)c(C(=O)O)cn1c23.O [LEVOFLOXACIN] | – | 16 | 0.12 | 8 | 0.12 | 2 | 0.12 | – | 1 | 0.5
